Results as given in patent publication US20200282052A1, “A COMBINATION THERAPY WITH APATINIB FOR THE TREATMENT OF CANCER” (Elevar Therapeutics, Inc., priority 2017, published 2020).
Where a name gives a salt, the structure may show the parent alone.

How the values were obtained:
[1] = in vivo; cited from earlier work
[2] = test system: advanced or metastatic gastric cancer; conditions: cited from earlier work
VEGFR-2 = VEGFR-2 (Homo sapiens, UniProt P35968); conditions: nonclinical studies; cited from earlier work
[3] = healthy volunteers, cited from earlier work
[4] = test system: tumor bearing animal models; conditions: cited from earlier work
c-SRC = c-SRC (Homo sapiens, UniProt P12931); conditions: cited from earlier work
[5] = test system: mouse LL/2 lung carcinoma; test: LL/2 lung carcinoma syngeneic mouse model; type: in vivo; conditions: day 20; apatinib mesylate 300 mg/kg p.o. q.d., anti-muPD-1 antibody 10 mg/kg i.p. b.i.w.; C57BL/6 mice
Description: 40 female C57BL/6 mice purchased from Jackson Laboratories were enrolled on the study. Animals were housed for stabilization period. Animals were housed in individual HEPA ventilated cages (Innocage® IVC, Innovive USA). Fluorescent lighting was provided on a 12-hour cycle. Temperature and humidity was monitored and recorded daily and maintained to the maximum extent possible between 68-74° F. (20-23° C.) and 30-70% humidity, respectively. 2920×.10 18% soy irradiated rodent feed (Harlan) and autoclaved acidified water (pH 2.5-3) was provided ad libitum.
For inoculation, LL/2 cell viability was at 98%. Cryo vials containing LL/2 cells were thawed and prepared for injection into mice. On study day −3 cells were washed in PBS, counted, and re-suspended in cold PBS at concentrations of 250,000 viable cells/100 μL. Cell suspensions were mixed with PBS and kept on ice during transport to the vivarium. Cells for injections were prepared by withdrawing the PBS-cell mixture into a chilled 1 mL Lure-lok syringe fitted with a 26 7/8 G (0.5 mm×22 mm) needle. […]
Animals were monitored weekly for palpable tumors, or any changes in appearance or behavior. Once tumors were palpable, they were measured 3 times a week using calipers. Tumor volume was calculated using the following equation (longest diameter×shortest diameter 2)/2.
Body weight was measured at least three times a week. […]

c-Kit = c-Kit (Homo sapiens, UniProt P10721); conditions: cited from earlier work
[6] = single dose, cited from earlier work

c-Kit, sequence (P10721 26-976): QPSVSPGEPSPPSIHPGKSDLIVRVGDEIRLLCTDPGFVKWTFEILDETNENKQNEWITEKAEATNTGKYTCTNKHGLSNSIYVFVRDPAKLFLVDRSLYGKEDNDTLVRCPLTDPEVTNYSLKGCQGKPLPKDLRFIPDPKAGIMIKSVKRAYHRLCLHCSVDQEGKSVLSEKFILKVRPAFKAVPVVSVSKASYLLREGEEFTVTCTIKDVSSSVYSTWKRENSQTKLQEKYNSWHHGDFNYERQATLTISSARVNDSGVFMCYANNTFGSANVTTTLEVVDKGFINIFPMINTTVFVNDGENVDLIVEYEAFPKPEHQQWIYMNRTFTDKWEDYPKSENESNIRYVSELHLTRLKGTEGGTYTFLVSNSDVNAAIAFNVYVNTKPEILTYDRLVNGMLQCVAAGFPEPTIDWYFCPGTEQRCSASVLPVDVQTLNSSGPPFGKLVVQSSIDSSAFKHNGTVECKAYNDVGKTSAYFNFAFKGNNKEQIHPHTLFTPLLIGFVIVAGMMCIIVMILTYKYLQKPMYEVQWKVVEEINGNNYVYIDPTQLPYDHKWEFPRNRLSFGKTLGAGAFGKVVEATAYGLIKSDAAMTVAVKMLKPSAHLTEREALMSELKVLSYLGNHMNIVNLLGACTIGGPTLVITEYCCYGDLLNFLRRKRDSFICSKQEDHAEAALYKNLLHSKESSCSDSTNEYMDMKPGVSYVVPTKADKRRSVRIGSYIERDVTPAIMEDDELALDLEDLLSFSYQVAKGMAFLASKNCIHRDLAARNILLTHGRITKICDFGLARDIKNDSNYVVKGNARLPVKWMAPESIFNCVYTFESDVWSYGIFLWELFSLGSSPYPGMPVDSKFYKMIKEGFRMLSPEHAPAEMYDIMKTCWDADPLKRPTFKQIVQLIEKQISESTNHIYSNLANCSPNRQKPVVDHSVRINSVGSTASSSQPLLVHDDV
c-SRC, sequence (P12931 whole entry, species assumed): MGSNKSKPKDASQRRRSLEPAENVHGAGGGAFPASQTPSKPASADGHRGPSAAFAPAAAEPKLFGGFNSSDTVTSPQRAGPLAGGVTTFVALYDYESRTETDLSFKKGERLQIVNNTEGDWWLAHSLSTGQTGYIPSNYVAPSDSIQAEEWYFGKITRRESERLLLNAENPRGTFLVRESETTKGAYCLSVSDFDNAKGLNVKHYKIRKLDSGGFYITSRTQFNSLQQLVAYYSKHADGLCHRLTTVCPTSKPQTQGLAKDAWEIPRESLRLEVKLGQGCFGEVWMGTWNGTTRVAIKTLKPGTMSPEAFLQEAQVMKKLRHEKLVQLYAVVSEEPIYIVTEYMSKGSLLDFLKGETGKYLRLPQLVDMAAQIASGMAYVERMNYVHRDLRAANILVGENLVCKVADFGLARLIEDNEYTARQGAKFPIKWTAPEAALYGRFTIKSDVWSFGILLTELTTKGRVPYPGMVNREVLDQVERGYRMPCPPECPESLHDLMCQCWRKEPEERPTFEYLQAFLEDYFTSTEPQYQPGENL
VEGFR-2, sequence (P35968 20-1356, species assumed): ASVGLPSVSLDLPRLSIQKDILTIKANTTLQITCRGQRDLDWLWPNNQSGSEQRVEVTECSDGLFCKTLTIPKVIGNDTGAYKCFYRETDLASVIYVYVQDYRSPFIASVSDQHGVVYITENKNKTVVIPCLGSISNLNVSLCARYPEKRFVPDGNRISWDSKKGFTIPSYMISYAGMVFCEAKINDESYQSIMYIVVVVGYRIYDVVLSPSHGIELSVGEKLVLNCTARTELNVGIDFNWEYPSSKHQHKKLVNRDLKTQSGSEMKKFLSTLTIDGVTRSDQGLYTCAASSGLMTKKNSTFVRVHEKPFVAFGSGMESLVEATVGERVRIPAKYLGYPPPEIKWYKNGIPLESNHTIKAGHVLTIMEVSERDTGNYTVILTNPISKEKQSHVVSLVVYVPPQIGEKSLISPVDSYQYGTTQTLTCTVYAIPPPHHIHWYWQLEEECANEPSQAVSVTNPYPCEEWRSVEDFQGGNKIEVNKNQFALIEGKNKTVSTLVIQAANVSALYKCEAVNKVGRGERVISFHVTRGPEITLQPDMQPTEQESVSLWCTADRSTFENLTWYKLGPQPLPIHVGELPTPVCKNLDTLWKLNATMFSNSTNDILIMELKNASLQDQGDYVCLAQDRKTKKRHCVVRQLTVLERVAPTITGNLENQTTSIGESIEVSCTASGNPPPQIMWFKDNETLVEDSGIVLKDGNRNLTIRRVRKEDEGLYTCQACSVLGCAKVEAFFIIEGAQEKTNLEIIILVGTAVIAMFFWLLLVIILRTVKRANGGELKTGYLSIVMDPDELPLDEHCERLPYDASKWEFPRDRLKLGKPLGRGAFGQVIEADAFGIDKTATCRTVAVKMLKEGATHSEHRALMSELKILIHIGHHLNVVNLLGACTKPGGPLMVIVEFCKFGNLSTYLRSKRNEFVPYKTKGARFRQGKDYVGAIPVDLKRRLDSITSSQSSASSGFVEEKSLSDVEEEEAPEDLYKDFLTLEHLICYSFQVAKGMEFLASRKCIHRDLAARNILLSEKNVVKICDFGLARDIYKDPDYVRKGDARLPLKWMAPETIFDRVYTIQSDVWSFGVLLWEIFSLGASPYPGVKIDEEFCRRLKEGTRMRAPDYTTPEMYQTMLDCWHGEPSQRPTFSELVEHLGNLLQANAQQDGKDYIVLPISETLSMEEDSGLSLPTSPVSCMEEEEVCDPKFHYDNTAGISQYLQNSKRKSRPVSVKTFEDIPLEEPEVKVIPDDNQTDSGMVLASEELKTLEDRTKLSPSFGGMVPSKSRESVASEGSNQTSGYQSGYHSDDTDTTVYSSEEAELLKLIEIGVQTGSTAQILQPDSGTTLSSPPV

Structure (SMILES) | Safety Profile: Central nervous system [1] | Safety Profile: Liver/Bile [1] | Safety Profile: Musculoskeletal/bone [1] | Safety Profile: Renal [1] | Safety Profile: Heart [1] | also measured
Cc1nc(Nc2ncc(C(=O)Nc3c(C)cccc3Cl)s2)cc(N2CCN(CCO)CC2)n1 [Dasatinib] | R | R | R | R | – | –
C#Cc1cccc(Nc2ncnc3cc(OCCOC)c(OCCOC)cc23)c1 [Erlotinib] | R | R | – | – | – | Safety Profile: Blood/lymph system [1]: R
CS(=O)(=O)CCNCc1ccc(-c2ccc3ncnc(Nc4ccc(OCc5cccc(F)c5)c(Cl)c4)c3c2)o1 [Lapatinib] | R | – | – | – | R | –
Cc1cn(-c2cc(NC(=O)c3ccc(C)c(Nc4nccc(-c5cccnc5)n4)c3)cc(C(F)(F)F)c2)cn1 [Nilotinib] | R | – | R | R | – | Safety Profile: GI [1]: R; Safety Profile: Vascular [1]: R
Cc1ccc(Nc2nccc(N(C)c3ccc4c(C)n(C)nc4c3)n2)cc1S(N)(=O)=O [Pazopanib] | – | – | – | – | R | –
N#CC1(c2ccc(NC(=O)c3cccnc3NCc3ccncc3)cc2)CCCC1 [Rivoceranib, N-[4-(1-cyanocyclopentyl)phenyl]-2-{[(pyridin-4-yl)methyl]amino} pyridine-3-carboxamide] | – | – | – | – | – | median overall survival (OS) compared to placebo ([2]; Phase 3): prolonged; median progression-free survival (PFS) compared to placebo ([2]; Phase 3): prolonged; patients with Grade ¾ adverse reactions ([2]; hypertension, HFS, proteinuria, fatigue, anorexia, and elevated aminotransferase): more than 2%; binding to VEGFR-2 (VEGFR-2): selectively binds; food effects on the bioavailability ([3]; 81 mg rivoceranib dose): minimal; increase in bioavailability with food ([3]; 201 mg dose): 20-30%; side effects in animals ([4]; at efficacious doses): minimal side effects; efficacy in various tumor bearing animal models ([4]; nonclinical studies): efficacious; inhibition of c-SRC tyrosine kinase (c-SRC): mildly inhibits; % Tumor growth inhibition [5]: 37%; inhibition of c-Kit tyrosine kinase (c-Kit): mildly inhibits
CNC(=O)c1cc(Oc2ccc(NC(=O)Nc3ccc(Cl)c(C(F)(F)F)c3)cc2)ccn1 [Sorafenib] | R | R | R | R | R | Safety Profile: GI [1]: R; Safety Profile: Lung airways [1]: R
CCN(CC)CCNC(=O)c1c(C)[nH]c(/C=C2\C(=O)Nc3ccc(F)cc32)c1C [Sunitinib] | R | R | – | – | R | –
N#CC1(c2ccc(NC(=O)c3cccnc3NCc3ccncc3)cc2)CCCC1 [rivoceranib mesylate] | – | – | – | – | – | AUC0-∞ in Chinese and Japanese subjects compared to Caucasian subjects ([6]; healthy male): slightly higher; Cmax in Chinese and Japanese subjects compared to Caucasian subjects ([6]; healthy male): slightly higher; t1/2 ([6]; similar amongst Caucasian, Japanese and Chinese groups): 7.5 to 8 h
